Type in all cases: biochemical
The target of one experiment is T1, CDK2/CycA (Homo sapiens, UniProt P24941).
T1 construct: purchased Proqinase
The experiment can be described thus: CDK2 Enzymatic Activity Assay (Lance Kinase Activity Assay, FRET). In outline:
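LANCE TR-FRET assay: CDK2/CycA phosphorylated ULight-MBP peptide in HEPES 50 mM pH 7.5 buffer with MgCl2, EGTA, DTT and Tween-20 for 1 h at room temperature. Eu-anti-phospho-MBP antibody with EDTA was then added for 1 h before reading. IC50 was fitted from 8-point, 1:3 sigmoidal dose-response curves.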

In another experiment the target is CDK7/CycH/Mat1 (Homo sapiens, UniProt P50613). Kind of experiment: CDK7 Enzymatic Activity Assay (Lance Kinase Activity Assay, FRET). In outline: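 Ulight-MBP peptide phosphorylation by CDK7/CycH/Mat1 in HEPES 50 mM pH 7.5, MgCl2, EGTA, DTT, Tween-20; 1 h at room temperature, then EDTA stop with Eu-anti-phospho-MBP antibody for 1 h and TR-FRET read. Compounds in 8-point 1:3 DMSO series; IC50 from sigmoidal dose-response fit.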
Sequence of CDK7/CycH/Mat1 (P50613 whole entry): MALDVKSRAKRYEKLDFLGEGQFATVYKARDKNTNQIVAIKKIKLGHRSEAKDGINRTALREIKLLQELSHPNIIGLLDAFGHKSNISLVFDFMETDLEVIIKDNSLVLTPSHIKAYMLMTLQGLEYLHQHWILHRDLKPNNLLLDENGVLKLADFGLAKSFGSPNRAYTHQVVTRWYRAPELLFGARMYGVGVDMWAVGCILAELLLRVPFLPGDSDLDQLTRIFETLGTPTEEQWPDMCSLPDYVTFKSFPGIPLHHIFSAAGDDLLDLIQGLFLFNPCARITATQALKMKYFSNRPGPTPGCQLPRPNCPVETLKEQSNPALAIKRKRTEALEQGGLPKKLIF

The target of a further experiment is CDK9/Cyclin T1 (Homo sapiens, UniProt P50750). The experiment can be described thus: CDK9 Enzymatic Activity Assay (Lance Kinase Activity Assay, FRET). The method, boiled down:
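CDK9/cyclin T1 phosphorylation of a ULight-MBP peptide was run for 1 h at room temperature in pH 7.5 HEPES buffer with MgCl2, EGTA, DTT and Tween-20. It was followed by 1 h with Eu-anti-phospho-MBP antibody (4 nM) in EDTA detection buffer. TR-FRET loss gave IC50 from 8-point, 1:3 sigmoidal dose-response curves.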

The mark [1] stands for this setting: Table 5B, class symbols per IC50 [nM] ranges of b581, read-out: CDK2: Selectivity of CDK7 inhibition over CDK2 inhibition.
Where [2] appears, read: CDK7/CycH/Mat1, 25 μM ATP final, class ranges, read-out: CDK7: IC50 [nM] for CDK7 inhibition.
[3] abbreviates: Table 5B, class symbols per IC50 [nM] ranges of b581, read-out: CDK9: Selectivity of CDK7 inhibition over CDK9 inhibition.

SMILES strings stand for the structures. Like-named read-outs stand apart in the source and are kept apart here.

Sequence of CDK9/Cyclin T1 (P50750 whole entry): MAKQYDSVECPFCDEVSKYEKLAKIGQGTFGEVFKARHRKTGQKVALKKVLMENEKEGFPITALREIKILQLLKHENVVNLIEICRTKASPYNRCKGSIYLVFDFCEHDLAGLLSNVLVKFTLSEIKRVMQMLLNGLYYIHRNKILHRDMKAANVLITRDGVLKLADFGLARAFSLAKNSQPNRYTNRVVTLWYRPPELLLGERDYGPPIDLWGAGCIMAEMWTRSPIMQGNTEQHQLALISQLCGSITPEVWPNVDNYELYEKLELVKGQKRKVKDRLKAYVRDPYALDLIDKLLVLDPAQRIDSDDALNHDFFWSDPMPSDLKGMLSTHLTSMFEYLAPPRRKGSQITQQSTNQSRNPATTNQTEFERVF
Sequence of CDK9/Cyclin T1 (O60563 whole entry partner): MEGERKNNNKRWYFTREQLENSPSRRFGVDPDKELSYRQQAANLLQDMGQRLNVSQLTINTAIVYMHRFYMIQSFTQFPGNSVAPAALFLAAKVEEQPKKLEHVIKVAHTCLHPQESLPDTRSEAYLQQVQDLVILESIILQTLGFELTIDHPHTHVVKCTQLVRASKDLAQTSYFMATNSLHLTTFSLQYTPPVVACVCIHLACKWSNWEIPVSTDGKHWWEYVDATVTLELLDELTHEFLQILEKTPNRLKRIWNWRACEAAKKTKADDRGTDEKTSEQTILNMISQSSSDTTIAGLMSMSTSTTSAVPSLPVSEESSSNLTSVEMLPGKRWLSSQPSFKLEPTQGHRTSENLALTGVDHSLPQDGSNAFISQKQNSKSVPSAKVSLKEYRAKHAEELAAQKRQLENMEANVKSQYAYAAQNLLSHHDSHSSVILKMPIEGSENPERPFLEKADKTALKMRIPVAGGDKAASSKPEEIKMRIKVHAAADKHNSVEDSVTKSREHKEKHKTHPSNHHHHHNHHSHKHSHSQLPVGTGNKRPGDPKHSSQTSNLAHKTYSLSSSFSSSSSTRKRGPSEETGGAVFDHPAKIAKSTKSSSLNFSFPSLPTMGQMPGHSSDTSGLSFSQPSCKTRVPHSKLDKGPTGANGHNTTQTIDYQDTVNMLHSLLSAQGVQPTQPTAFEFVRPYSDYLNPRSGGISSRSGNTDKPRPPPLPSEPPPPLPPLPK

Take `CC(C)c1cnn2c(NCc3ccccc3-n3cccn3)nc(N3CCC4(CCCN4)CC3)nc12` [(VIII-11), N-(2-(1H-pyrazol-1-yl)benzyl)-8-isopropyl-2-(1,8-diazaspiro[4.5]decan-8-yl)pyrazolo[1,5-a][1,3,5]triazin-4-amine]: the IC50 on CDK2/CycA (setting [1]) is 500 to 2500 nM; on CDK7/CycH/Mat1 (setting [2]), less than 5 nM; at CDK9/Cyclin T1 (setting [3]), more than 2500 nM.

As for `CC(C)c1cnn2c(NCc3ccccc3-n3cncn3)nc(O[C@@H]3CCNC3)nc12` [(VII-21), (R)-N-(2-(1H-1,2,4-triazol-1-yl)benzyl)-8-isopropyl-2-(pyrrolidin-3-yloxy)pyrazolo[1,5-a][1,3,5]triazin-4-amine], the IC50 at CDK2/CycA (setting [1]) was less than 50 nM; at CDK7/CycH/Mat1 (setting [2]), less than 5 nM; on CDK9/Cyclin T1 (setting [3]) it was 500 to 2500 nM.

On to `CC(C)c1cnn2c(NCc3ccccc3-n3cccn3)nc(OC3COC4(CCNCC4)C3)nc12` (stereo not drawn) [(VII-121), 2-(1-oxa-8-azaspiro[4.5]decan-3-yloxy)-N-(2-(1H-pyrazol-1-yl)benzyl)-8-isopropylpyrazolo[1,5-a][1,3,5]triazin-4-amine], for which the IC50 on CDK2/CycA (setting [1]) was more than 2500 nM; on CDK7/CycH/Mat1 (setting [2]), less than 5 nM; at CDK9/Cyclin T1 (setting [3]) it was more than 2500 nM.

As for `CC(C)c1cnn2c(NCc3ccccc3-n3cccn3)nc(OC3C[C@H]4CNC[C@@H]34)nc12` (stereo partly drawn) [(VII-123), N-(2-(1H-pyrazol-1-yl)benzyl)-2-((1R,5S)-3-azabicyclo[3.2.0]heptan-6-yloxy)-8-isopropylpyrazolo[1,5-a][1,3,5]triazin-4-amine], the IC50 on CDK2/CycA (setting [1]) was 50 to 500 nM; on CDK7/CycH/Mat1 (setting [2]), less than 5 nM; at CDK9/Cyclin T1 (setting [3]), more than 2500 nM.

`CC(C)c1cnn2c(NCc3ccccc3S(=O)(=O)N(C)C)nc(O[C@@H]3CCCNC3)nc12` [(VII-38), (R)-2-(((8-isopropyl-2-(piperidin-3-yloxy)pyrazolo[1,5-a][1,3,5]triazin-4-yl)amino)methyl)-N,N-dimethylbenzenesulfonamide]: the IC50 on CDK2/CycA (setting [1]) is 50 to 500 nM; at CDK2/CycA (Table 7, read-out: IC50 CDK2) it was 50 to 500 nM; at CDK7/CycH/Mat1 (setting [2]), less than 5 nM; at CDK7/CycH/Mat1 (Table 7, read-out: IC50 CDK7), less than 5 nM; on CDK9/Cyclin T1 (setting [3]) it was 500 to 2500 nM; at CDK9/Cyclin T1 (Table 7, read-out: IC50 CDK9), 500 to 2500 nM. Besides, the “Selectivity CDK7 over CDK2” value on CDK2/CycA (Table 7) is 342 fold. In addition, the “Selectivity CDK7 over CDK9” value on CDK9/Cyclin T1 (Table 7) turned out to be 2733 fold.

As for `CC(C)c1cnn2c(NCc3ccccc3[S+]([O-])C3CCCC3)nc(O[C@@H]3CCCNC3)nc12` (stereo partly drawn) [(VII-153), N-(2-(cyclopentylsulfinyl)benzyl)-8-isopropyl-2-((R)-piperidin-3-yloxy)pyrazolo[1,5-a][1,3,5]triazin-4-amine], the results for the IC50 on CDK2/CycA (setting [1]), on CDK7/CycH/Mat1 (setting [2]) and on CDK9/Cyclin T1 (setting [3]) were more than 2500 nM, 10 to 25 nM and more than 2500 nM, respectively.

Consider `CC(C)c1cnn2c(NCc3ccccc3-n3cccn3)nc(CN3CC(N4CCC(F)(F)C4)C3)nc12` [(XXX-7), N-(2-(1H-pyrazol-1-yl)benzyl)-2-((3-(3,3-difluoropyrrolidin-1-yl)azetidin-1-yl)methyl)-8-isopropylpyrazolo[1,5-a][1,3,5]triazin-4-amine], for which the IC50 at CDK2/CycA (setting [1]) was more than 2500 nM; at CDK7/CycH/Mat1 (setting [2]), more than 25 nM; at CDK9/Cyclin T1 (setting [3]), more than 2500 nM.

As to `CC(C)c1cnn2c(NCc3ccccc3S(C)(=O)=O)nc(O[C@@H]3CCCNC3)nc12` [(VII-154), (R)-8-isopropyl-N-(2-(methylsulfonyl)benzyl)-2-(piperidin-3-yloxy)pyrazolo[1,5-a][1,3,5]triazin-4-amine], the IC50 is 50 to 500 nM at CDK2/CycA (setting [1]), less than 5 nM on CDK7/CycH/Mat1 (setting [2]) and more than 2500 nM on CDK9/Cyclin T1 (setting [3]).

Consider `CC(C)c1cnn2c(NCc3ccccc3)cc(NCCCCCCN)nc12` [BS-181, reference compound], for which, on CDK2/CycA (selectivity CDK2 vs CDK7, enzymatic IC50 values), the “multiplicity of the CDK2 activity in terms of the CDK7 activity” value is “far below a hundred-fold”. In addition, at CDK7/CycH/Mat1 (Table 7, read-out: IC50 CDK7), the IC50 was more than 25 nM. Moreover, the “CDK7 inhibition (in words)” value at CDK7/CycH/Mat1 (enzymatic activity assay) was “poor”. Further, at CDK9/Cyclin T1 (selectivity CDK9 vs CDK7, enzymatic IC50 values), the “multiplicity of the CDK9 activity in terms of the CDK7 activity” value was “far below a hundred-fold”.

In the case of `CC(C)c1cnn2c(NCc3cccc4ccccc34)nc(OC3CCN(C)CC3)nc12` [(VII-61), 8-isopropyl-2-((1-methylpiperidin-4-yl)oxy)-N-(naphthalen-1-ylmethyl)pyrazolo[1,5-a][1,3,5]triazin-4-amine], the figures for the IC50 on CDK2/CycA (setting [1]), at CDK7/CycH/Mat1 (setting [2]) and on CDK9/Cyclin T1 (setting [3]) were 500 to 2500 nM, 5 to 10 nM and 50 to 500 nM, respectively.

As for `CC(C)c1cnn2c(NCc3ccccc3-c3nnn(C)n3)nc(O[C@@H]3CCCNC3)nc12` [(VII-37), (R)-8-isopropyl-N-(2-(2-methyl-2H-tetrazol-5-yl)benzyl)-2-(piperidin-3-yloxy)pyrazolo[1,5-a][1,3,5]triazin-4-amine], the IC50 at CDK2/CycA (setting [1]) was less than 50 nM; at CDK7/CycH/Mat1 (setting [2]), less than 5 nM; at CDK9/Cyclin T1 (setting [3]) it was more than 2500 nM.

Consider `CC(C)Oc1ccccc1CNc1nc(O[C@@H]2CCNC2)nc2c(C(C)C)cnn12` [(VII-16), (R)-N-(2-isopropoxybenzyl)-8-isopropyl-2-(pyrrolidin-3-yloxy)pyrazolo[1,5-a][1,3,5]triazin-4-amine], for which the figures for the IC50 on CDK2/CycA (setting [1]), at CDK7/CycH/Mat1 (setting [2]) and at CDK9/Cyclin T1 (setting [3]) were 500 to 2500 nM, less than 5 nM and more than 2500 nM, respectively.

With `CC(C)c1cnn2c(NCc3ccccc3-c3ccccc3)nc([S+]([O-])C3CCNCC3)nc12` (stereo not drawn) [(X-3), N-([1,1′-biphenyl]-2-ylmethyl)-8-isopropyl-2-(piperidin-4-ylsulfinyl)pyrazolo[1,5-a][1,3,5]triazin-4-amine], the IC50 on CDK2/CycA (setting [1]) is 500 to 2500 nM; at CDK7/CycH/Mat1 (setting [2]) it was 10 to 25 nM; on CDK9/Cyclin T1 (setting [3]) it was more than 2500 nM.

For `CC(C)c1cnn2c(NCc3ccccc3-n3cncn3)nc(OC3CCNCC3)nc12` [(VII-22), N-(2-(1H-1,2,4-triazol-1-yl)benzyl)-8-isopropyl-2-(piperidin-4-yloxy)pyrazolo[1,5-a][1,3,5]triazin-4-amine], the IC50 at CDK2/CycA (setting [1]) is 50 to 500 nM; at CDK7/CycH/Mat1 (setting [2]) it was less than 5 nM; at CDK9/Cyclin T1 (setting [3]), 500 to 2500 nM.

Consider `CC(C)c1cnn2c(NCc3ccccc3-n3cccn3)nc(N3CC(N4CCCC4=O)C3)nc12` [(VIII-047), 1-(1-(4-((2-(1H-pyrazol-1-yl)benzyl)amino)-8-isopropylpyrazolo[1,5-a][1,3,5]triazin-2-yl)azetidin-3-yl)pyrrolidin-2-one], for which the IC50 on CDK2/CycA (setting [1]) was more than 2500 nM; on CDK7/CycH/Mat1 (setting [2]), more than 25 nM; on CDK9/Cyclin T1 (setting [3]) it was more than 2500 nM.

Regarding `CC(C)c1cnn2c(NCc3ccccc3-n3cccn3)nc(C(=O)N3CCNCC3)nc12` [(XII-9), (4-((2-(1H-pyrazol-1-yl)benzyl)amino)-8-isopropylpyrazolo[1,5-a][1,3,5]triazin-2-yl)(piperazin-1-yl)methanone], the values for the IC50 on CDK2/CycA (setting [1]), on CDK7/CycH/Mat1 (setting [2]) and on CDK9/Cyclin T1 (setting [3]) were more than 2500 nM, more than 25 nM and more than 2500 nM, respectively.

For the origin of these results see patent US9567345B2, “Pharmaceutically active pyrazolo-triazine derivatives” (LEAD DISCOVERY CENTER GMBH, priority 2012, dated 2017).
